Data on four compounds can be found in patent US20260248744A1, “USE OF NON-TOXIC POLYAMINE ANALOGUES AND/OR INHIBITORS OF POLYAMINE BIOSYNTHESIS TO RE-BALANCE NATURAL POLYAMINE LEVELS IN SNYDER-ROBINSON SYNDROME AND RELATED DISORDERS” (The Johns Hopkins University, priority 2022, published 2026).

In data set [1] the test system is WT male C57Bl/6J mice. Nature of the data set: Long-term in vivo exposure to low-dose (R,R)-1,12-Me2Spm in mice. The settings on record: WT male C57Bl/6J mice (FIG. 2). From the text:
Without wishing to be bound to any one particular theory, it is thought that inhibiting polyamine biosynthesis will enhance uptake of 1,12-Me2Spm and/or reduce the dose necessary for spermidine reduction.

Data set [2] has as its system SRS fibroblast lines. Nature of the data set: Proliferation of SRS fibroblast lines cotreated with DFMO and Me2Spm. As to conditions: cotreated with DFMO and Me2Spm for 96 h (FIG. 4C). It counts as cell-based. As to the method: (FIG. 4B) DFMO cooperates with Me2Spm in improving SPD/SPM ratio, indicated by numbers above columns. […] In FIG. 4A and FIG. 4B, SRS patient-derived lymphoblastoid cells were pretreated with DFMO followed by 96-h cotreatment with DFMO and Me2Spm. SRS fibroblast lines in FIG. 4C were cotreated with DFMO and Me2Spm for 96 h;

For data set [3] the following is noted: shown previously (Murray Stewart et al., 2020); cited from earlier work.
Data set [4] relates to SRS cells. Nature of the data set: Treatment of SRS cells with AdoDATO (polyamine levels). It counts as cell-based. The settings on record: SRS cells (FIG. 6).
Data set [5] has as its target T1, spermidine synthase (SRM) (Homo sapiens, UniProt P19623).
T1 sequence (P19623 1-302): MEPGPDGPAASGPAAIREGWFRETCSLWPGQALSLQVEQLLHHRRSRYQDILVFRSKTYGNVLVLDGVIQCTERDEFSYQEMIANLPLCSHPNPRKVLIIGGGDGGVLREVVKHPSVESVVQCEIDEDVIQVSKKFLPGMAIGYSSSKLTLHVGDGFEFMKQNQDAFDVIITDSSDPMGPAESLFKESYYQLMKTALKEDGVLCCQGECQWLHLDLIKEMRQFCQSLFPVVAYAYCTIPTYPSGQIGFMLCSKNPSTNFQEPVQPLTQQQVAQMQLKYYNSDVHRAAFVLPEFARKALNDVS
Nature of the data set: Inhibition of spermidine synthase.

The test system of data set [6] is SRS patient-derived cell lines. In words: Response of SRS patient-derived cell lines to DFMO (conversion of SPD to SPM). Format: cell-based.
For data set [7], the system named is SRS patient-derived lymphoblastoid cells. Nature of the data set: Polyamine levels in SRS patient-derived lymphoblastoid cells treated with DFMO and Me2Spm. It counts as cell-based. The settings on record: DFMO pretreatment followed by 96-h cotreatment (FIG. 4A).
The subject of data set [8] is SAMDC. In words: SAMDC activity in SRS cells treated with DFMO. Format: cell-based. The settings on record: FIG. 5C. The text has this:
(§1) FIG. 5A, FIG. 5B, FIG. 5C, FIG. 5D, and FIG. 5E show potential therapeutic targets and molecules in the response of SRS cells to DFMO.

Data set [9] has as its system SRS cells with a complete loss-of-function mutation in SMS. In words: Response to DFMO of SRS cells with complete loss-of-function mutation in SMS. It counts as cell-based. As to conditions: response to DFMO (FIG. 5E).
Text: as §1

Data set [10] deals with children. As to conditions: Phase 2 preventative trials in pediatric neuroblastoma; ODC1/Bachmann-Bupp trials; cited from earlier work.

On to `C[C@@H](N)CCNCCCCNCC[C@@H](C)N` [(R,R)-1,12-dimethylspermine], for which, in data set [1], the SPD/SPM ratio entry is “improves the SPD/SPM ratio” and the “toxicity of long-term in vivo exposure” value was “nontoxic”. Besides, the “rescue of DFMO-mediated growth inhibition” value in data set [2] is recorded as “rescues DFMO-mediated growth inhibition”. In addition, in data set [3], the metabolic stability result is listed as “metabolically stable”.
With `NCCCCC[S+](CCN)CC1OC(n2cnc3c(N)ncnc32)C(O)C1O` (stereo not drawn) [AdoDATO, S-adenosyl-1,8-diamino-3-thio-octane], in data set [4], the SPD/SPM ratio result was “improves the SPD/SPM ratio” and the levels of putrescine result was “maintaining levels of putrescine”. Moreover, in [5], the “inhibition of spermidine synthase (SRM)” value is given as “inhibits spermidine synthase (SRM)”.
With `N=C(N)c1cccc2c1CC/C2=N\N=C(N)N` [CGP48664], the “conversion to SPM on cotreatment with DFMO” value in data set [6] (cotreatment of DFMO with SAMDC inhibitor (FIG. 5D)) was “prevents the conversion to SPM”.
Regarding difluoromethylornithine [DFMO], the “uptake of Me2Spm” value in data set [7] is on record as “increases uptake of Me2Spm”. Also, the SPD/SPM ratio entry in [6] (SRS patient-derived cell lines (FIG. 5B)) was “correction of the SPD/SPM ratio”. The entries for the “conversion of SPD to SPM” value in [6] (hypomorphic SRS cells (FIG. 5A)) and in data set [9] were “enhances conversion of SPD to SPM” and “do not convert SPD to SPM”, respectively. Also, the SAMDC activity entry in data set [8] was “induces SAMDC activity”. Moreover, the levels of putrescine entry in data set [4] is “depletes”. Further, in [10], the safety in children entry is recorded as “safe in children”.
